Measured values published in publication PMC5171706 (2016).

Legend:
[1] = system: Pu24T (DNA, G4) TGAGGGTGGTGAGGGTGGGGAAGG; test: 1H NMR titration; conditions: K+ (potassium phosphate); 298 K, 400 μM Piperine, H2O/D2O 9:1; Piperine resonances broaden
[2] = system: Pu24T (DNA, G4) TGAGGGTGGTGAGGGTGGGGAAGG; test: gel mobility shift; conditions: K+ (10 mM potassium phosphate, 50 mM KCl); 20 μM DNA, room temperature
[3] = system: Pu24T (DNA, G4) TGAGGGTGGTGAGGGTGGGGAAGG; test: UV melting at 295 nm; conditions: K+ (10 mM potassium phosphate, 50 mM KCl); pH 7.0; derived from two Tm (75.0 and 79.0 °C); D/N = 2.0; 78.0 °C at D/N 1.0
[4] = system: Pu24T (DNA, G4) TGAGGGTGGTGAGGGTGGGGAAGG; test: fluorescence titration of Piperine; conditions: K+ (10 mM potassium phosphate, 50 mM KCl); pH 7.0, 25 °C; two-site saturation fit, Kd1 and Kd2 only in Figure 2 and Table S1
[5] = system: tel22 (DNA, G4) AGGGTTAGGGTTAGGGTTAGGG; test: fluorescence titration of Piperine; conditions: K+ (10 mM potassium phosphate, 50 mM KCl); pH 7.0, 25 °C; two-site saturation fit, Kd1 and Kd2 only in Figure 2 and Table S1
[6] = system: tel22 (DNA, G4) AGGGTTAGGGTTAGGGTTAGGG; test: time-resolved fluorescence (lifetime); conditions: K+ (10 mM potassium phosphate, 50 mM KCl); 40.0 μM Piperine, D/N 1.0 and 2.0; lifetime increases

- binding [1]: yes
- binding [2]: yes
- ΔTm [3]: 4.0 °C
- Kd1 [4]: 2.5 nM
- Kd1 [5]: 87.5 nM
- binding [6]: yes
SMILES: O=C(/C=C/C=C/c1ccc2c(c1)OCO2)N1CCCCC1
